Test results from patent publication US3931262A, “Hydrophilic and difficultly volatile biocidal triorganotin compounds” (priority 1972, dated 1976).

What was measured:
[1] = Solubility in water; assay type: physicochemical; conditions: for Solubility in water (in words): Table 1 and text
Source text: Solubility properties of tributyltin derivatives [formula]

[2] = test system: Alternaria tenuis CBS 10426; test: Microbiological test; assay type: cell-based
Source text: (§1) In the test for microbiocidal activity the compounds listed hereinbelow yielded the values indicated in the following Table: No. Compound __________________________________________________________________________ 1 (n--C4 H9)3 Sn--S--CH2 --CH2 --COO.(CH 2 --CH2 --O--n H(n~9) 2 (C6 H5)3 Sn--S--(CH2)3 --SO3.Na CH3 .vertline. 3 --Sn--S--CH2 --CH2 --COO--(CH2 --CH2 --O)n.H(n ~9) .vertline. CH3 4 (n--C4 H9)3 Sn--S--CH2 --COO.H.N(CH2 CH2 OH)3 5 (n--C4 H9)3 Sn--S--(CH2)2 --COO.H.N(CH2 CH2 OH)3 6 (n--C4 H9)3 Sn--S--CH2 --CO.N(CH2 CH2 OH)2 __________________________________________________________________________

[3] = test system: Arizona paracolon 7:1.7,8; test: Microbiological test; assay type: cell-based
Source text: as §1

[4] = test system: Aspergillus flavus CBS 12662; test: Microbiological test; assay type: cell-based
Source text: as §1

[5] = test system: Aspergillus niger ATCC 6275; test: Microbiological test; assay type: cell-based
Source text: as §1

[6] = test system: Bacillus subtilis NCTC 6460; test: Microbiological test; assay type: cell-based
Source text: as §1

[7] = test system: Candida albicans CBS; test: Microbiological test; assay type: cell-based
Source text: as §1

[8] = test system: Chaetomium globosum CBS 14851; test: Microbiological test; assay type: cell-based
Source text: as §1

[9] = test system: Coniphora cerebella CBS; test: Microbiological test; assay type: cell-based
Source text: as §1

[10] = test system: Corynebacterium diphteroides FUR; test: Microbiological test; assay type: cell-based
Source text: as §1

[11] = test system: Escherichia coli NCTC 8195; test: Microbiological test; assay type: cell-based
Source text: as §1

[12] = test system: Escherichia coli RP 45410; test: Microbiological test; assay type: cell-based
Source text: as §1

[13] = test system: Fusarium oxysporum CBS; test: Microbiological test; assay type: cell-based
Source text: as §1

[14] = test system: Lenzites abietina CBS; test: Microbiological test; assay type: cell-based
Source text: as §1

[15] = test system: Mycobacterium phlei CITM 61; test: Microbiological test; assay type: cell-based
Source text: as §1

[16] = test system: Paecilomyces varioti CBS; test: Microbiological test; assay type: cell-based
Source text: as §1

[17] = test system: Pasteurella multocida K753; test: Microbiological test; assay type: cell-based
Source text: as §1

[18] = test system: Penicillium expansum SMC 36; test: Microbiological test; assay type: cell-based
Source text: as §1

[19] = test system: Penicillium funiculosum CEB 329631; test: Microbiological test; assay type: cell-based
Source text: as §1

[20] = test system: Polystictus versicolor EMPA61; test: Microbiological test; assay type: cell-based
Source text: as §1

[21] = test system: Poria vaporia CBS; test: Microbiological test; assay type: cell-based
Source text: as §1

[22] = test system: Pseudomonas fluorescens NCTC 4755; test: Microbiological test; assay type: cell-based
Source text: as §1

[23] = test system: Pullularia pullulans CBS 10767; test: Microbiological test; assay type: cell-based
Source text: as §1

[24] = test system: Salmonella pullorum VBIZ; test: Microbiological test; assay type: cell-based
Source text: as §1

[25] = test system: Sarcina ureae SMB 81; test: Microbiological test; assay type: cell-based
Source text: as §1

[26] = test system: Stachybotrys atra CBS 32465; test: Microbiological test; assay type: cell-based
Source text: as §1

[27] = test system: Staphylococcus aureus SG 511 M6; test: Microbiological test; assay type: cell-based
Source text: as §1

[28] = test system: Staphylococcus aureus SG 511; test: Microbiological test; assay type: cell-based
Source text: as §1

[29] = test system: Streptococcus agalactiae M100; test: Microbiological test; assay type: cell-based
Source text: as §1

[30] = test system: Streptococcus faecalis NCTC 8619; test: Microbiological test; assay type: cell-based
Source text: as §1

[31] = test system: Trichoderma viride CEB 3334.2; test: Microbiological test; assay type: cell-based
Source text: as §1

[32] = test system: Trichophyton gypseum CBS; test: Microbiological test; assay type: cell-based
Source text: as §1

[33] = test system: Salmonella cholerae-suis VBIB; assay type: cell-based
[34] = test system: Fusarium spec. DAP; test: Microbiological test; assay type: cell-based
Source text: as §1

[35] = test system: Hefe DAP; test: Microbiological test; assay type: cell-based
Source text: as §1

[36] = test system: Hefe rot DAP; test: Microbiological test; assay type: cell-based
Source text: as §1

[37] = test system: Pilz schwarzlich DAP; test: Microbiological test; assay type: cell-based
Source text: as §1

[38] = test system: Salmonella gallinarum VBIB; test: Microbiological test; assay type: cell-based
Source text: as §1

| Structure (SMILES) | Activity range [2] [ppm] | Activity range [3] [ppm] | Activity range [4] [ppm] | Activity range [5] [ppm] | Activity range [6] [ppm] | Activity range [7] [ppm] | Activity range [8] [ppm] | Activity range [9] [ppm] | Activity range [10] [ppm] | Activity range [11] [ppm] | Activity range [12] [ppm] | Activity range [13] [ppm] | Activity range [14] [ppm] | Activity range [15] [ppm] | Activity range [16] [ppm] | Activity range [17] [ppm] | Activity range [18] [ppm] | Activity range [19] [ppm] | Activity range [20] [ppm] | Activity range [21] [ppm] | further results |
| --- | --- | --- | --- | --- | --- | --- | --- | --- | --- | --- | --- | --- | --- | --- | --- | --- | --- | --- | --- | --- | --- |
| CCC[CH2][Sn]([CH2]CCC)([CH2]CCC)[O][Sn]([CH2]CCC)([CH2]CCC)[CH2]CCC [TBTO, bis-(tri-n-butyltin)-oxide] |  |  |  |  |  |  |  |  |  |  |  |  |  |  |  |  |  |  |  |  | Solubility in water ([1]; Table 1, comparison): 20 ppm; Solubility in water (in words) [1]: poor |
| CCC[CH2][Sn]([CH2]CCC)([CH2]CCC)[S]CC(O)CO (stereo not shown) [--CH2 --CH--CH2] |  |  |  |  |  |  |  |  |  |  |  |  |  |  |  |  |  |  |  |  | Solubility in water (in words) [1]: satisfactory |
| CCC[CH2][Sn]([CH2]CCC)([CH2]CCC)[S]CCC(=O)[O-].OCC[NH+](CCO)CCO [Compound 5, triethanolammonium S-tri-n-butyl tin-β-mercaptopropionate] | ≤ 3 | > 300 | 10 | 10 | 10 | 10 | ≤ 3 | 10 | 10 | > 300 | > 300 | 10 | 10 | 10 | ≤ 3 | 30 | 10 | 10 | 30 | 10 | Activity range [22]: 30 ppm; Activity range [23]: 10 ppm; Activity range [24]: > 300 ppm; Activity range [25]: 30 ppm; Activity range [26]: ≤ 3 ppm; Activity range [27]: 30 ppm; Activity range [28]: 10 ppm; Activity range [29]: 30 ppm; Activity range [30]: 100 ppm; Activity range [31]: 10 ppm; Activity range [32]: 10 ppm; Activity range [33]: > 300 ppm |
| O=S(=O)([O-])CCC[S][Sn]([c]1ccccc1)([c]1ccccc1)[c]1ccccc1.[Na+] [Compound 2, sodium S-triphenyl tin-γ-mercaptopropanesulphonate] | 10 | > 300 | 30 | 30 | 3 | 30 | 10 | 30 | 3 | 30 | 10 | 10 | 100 | 3 | 10 | > 300 | 30 | 100 | 30 | 3 | Activity range [34]: 30 ppm; Activity range [35]: 10 ppm; Activity range [36]: 10 ppm; Activity range [37]: 30 ppm; Activity range [22]: > 300 ppm; Activity range [23]: 3 ppm; Activity range [38]: > 300 ppm; Activity range [24]: > 300 ppm; Activity range [25]: 3 ppm; Activity range [26]: 10 ppm; Activity range [27]: 10 ppm; Activity range [28]: 3 ppm; Activity range [29]: 3 ppm; Activity range [30]: 10 ppm; Activity range [31]: 10 ppm; Activity range [32]: 30 ppm; Activity range [33]: > 300 ppm |
| CCC[CH2][Sn]([CH2]CCC)([CH2]CCC)[S]CC(=O)N(CCO)CCO [Compound 6, S-tri-n-butyl tin-thioglycolic acid diethanolamide] | ≤ 3 | > 300 | 10 | 10 | ≤ 1 | 10 | ≤ 3 | 10 | ≤ 1 | 30 | 30 | 10 | 10 | ≤ 1 | ≤ 3 | 30 | 10 | 30 | 30 | 10 | Activity range [22]: 30 ppm; Activity range [23]: 10 ppm; Activity range [24]: > 300 ppm; Activity range [25]: ≤ 1 ppm; Activity range [26]: ≤ 3 ppm; Activity range [27]: 3 ppm; Activity range [28]: 30 ppm; Activity range [29]: 3 ppm; Activity range [30]: 30 ppm; Activity range [31]: 10 ppm; Activity range [32]: 10 ppm; Activity range [33]: > 300 ppm |
| CCC[CH2][Sn]([CH2]CCC)([CH2]CCC)[S]CC(=O)[O-].OCC[NH+](CCO)CCO [Compound 4, triethylammonium S-tri-n-butyl tin-thioglycolate] | 10 | > 300 | 10 | 10 | 30 | 10 | 10 | 10 | 30 | 30 | 30 | 10 | 10 | 30 | 10 | 30 | 10 | 30 | 100 | 10 | Activity range [22]: > 300 ppm; Activity range [23]: 10 ppm; Activity range [24]: > 300 ppm; Activity range [25]: 30 ppm; Activity range [26]: 10 ppm; Activity range [27]: 30 ppm; Activity range [28]: 30 ppm; Activity range [29]: 30 ppm; Activity range [30]: 30 ppm; Activity range [31]: 10 ppm; Activity range [32]: 10 ppm; Activity range [33]: > 300 ppm |
